Results: patent publication US20010044470A1, “METHOD TO CONTROL ANIMAL ECTO-PARASITES” (priority 1997, published 2001)
Values joined by “and” are separate entries in the source; they are usually repeats but may differ in a detail not shown here. Identical values can stand only once.

Experiments:
Type in all cases: in vivo
[1] = system: cat fleas (Ctenocephalides felis); assay: Flea egg hatching after oral application to dogs (systemic control); conditions: beagle dog host, oral 10 mg/kg in dog feed
Method: One day after infestation, the weights of three dogs were measured and Compound #1 was applied orally to each of said three dogs in an amount of 10 mg per one kilogram of the weight of the dog by incorporating Compound #1 into dog feed and having the dog to eat it. After application, the dogs were placed in said steel cages.
(§1) The flea eggs collected onto the removable bottom tray were retrieved 4 and 5 days after the application. About 60 eggs were chosen from each batch of retrieved eggs. They were transferred to a plastic dish and then preserved under the conditions wherein the temperature was 26° C. and the humidity was at 90%. After 5-7 days of preservation, the eggs were observed about hatching.
The same procedure was repeated with another three dogs except that dog feed comprising no Compound #1 was applied. The percentages of hatching for applied dogs “T” and the percentage of hatching for non-applied dogs “C” were derived from the equation, respectively:
(§2) T=(the amount of hatched eggs)÷(the amount of retrieved eggs)×100
(§3) C=(the amount of hatched eggs)÷(the amount of retrieved eggs)×100
(§4) The obtained values of “T” and “C” were then used to determine the APH by employing the equation 1 mentioned above Example 1.

[2] = system: cat fleas (Ctenocephalides felis); assay: Flea egg hatching after oral application to mouse (systemic control); conditions: mouse host, oral 20 mg/kg in corn oil; for adjusted percentage concerning the loss of hatchings (%) 5 days after: flea eggs retrieved 5 days after application; for adjusted percentage concerning the loss of hatchings (%) 14 days after: flea eggs retrieved 14 days after application; for adjusted percentage concerning the loss of hatchings (%) 30 days after: flea eggs retrieved 30 days after application
Method: By using an appropriate sonde for the mouse, oral application to the mouse was performed at the rate of about 10 mL of the composition per kilogram body weight of the mouse. The said mouse was then stabilized with a wire netting, and was placed in a plastic container (depth 15 cm×width 15 cm×height 60 cm). Thirty (10 male and 20 female) starved adult cat fleas (Ctenocephalides felis) were freed into the said plastic container and the produced f lea eggs were retrieved f ive days later. A suitable amount (about 60 eggs) was transferred to a plastic dish and, preserved under the conditions wherein the temperature was 26° C. and the humidity was at 90%. After 2 days of preservation, the hatching conditions were observed. Afterwards, the treated mouse was allowed to inhabit a standard pet cage with food and water. Ten days after the application, the mouse was stabilized, placed in a plastic container, and was exposed to cat fleas in the same way as stated above. The produced flea eggs were then retrieved 14 days after the application, preserved in the conditions stated above, and had the hatching conditions observed. Twenty-six days after the application, the mouse was stabilized, placed in a plastic container, and was exposed to cat fleas in the same way as stated above. The produced flea eggs were then retrieved 30 days after the application of the composition, preserved in the conditions stated above, and had the hatching conditions observed. The same procedure was repeated without the application of the composition. The percentages of hatching for applied mouse “T” and the percentage of hatching for non-applied mouse “C” were derived from the equation, respectively: T=(the amount of hatched eggs)÷(the amount of retrieved eggs)×100 C=(the amount of hatched eggs)÷(the amount of retrieved eggs)×100 The acquired values of “T” and “C” were used to determine the adjusted percentage concerning the loss of hatchings by employing equation 1. The acquired values of “T” and “C” were utilized in the following equation: The adjusted percentage concerning the loss of hatchings (%)=(C−T)÷C×100 to determine the adjusted percentage concerning the loss of hatchings (hereinafter, recited as APH). […] In other words, “APH” looks at the amount of eggs that were unable to hatch rather than the amount of eggs that were able to hatch.

[3] = system: cat fleas (Ctenocephalides felis); assay: Flea egg hatching after oral application to cats (systemic control); conditions: cat host, oral 20 mg/kg in cat feed
Method: Seven days after infestation, the weights of two cats of were measured and Compound #1 was applied orally to each of said two cats in an amount of 20 mg per one kilogram of the weight of the cat by incorporating Compound #1 into cat feed and having the cat to eat it. After application, the cats were placed in said steel cages.
as §1, with “were retrieved 6 and 14” for “were retrieved 4 and 5”, “6 and 14 days after” for “4 and 5 days after”, “after the date of application. About” for “after the application. About”
The same procedure was repeated with another two cats except that cat feed comprising no Compound #1 was applied.
The percentages of hatching for applied cats “T” and the percentage of hatching for non-applied cats “C” were derived from the equation, respectively:
as §2, §3, §4

Row | Compound | average APH after 4 days ([1]; flea eggs retrieved 4 days after application) [%] | average APH after 5 days ([1]; flea eggs retrieved 5 days after application, 10 mg/kg) | adjusted percentage concerning the loss of hatchings (%) 5 days after [2] [%] | adjusted percentage concerning the loss of hatchings (%) 14 days after [2] [%] | adjusted percentage concerning the loss of hatchings (%) 30 days after [2] [%] | average APH after 6 days ([3]; flea eggs retrieved 6 days after application) [%] | average APH after 14 days ([3]; flea eggs retrieved 14 days after application, 20 mg/kg)
1 | O=C(NC(=O)c1c(F)cccc1F)Nc1ccc(OC(F)(F)C(F)C(F)(F)F)cc1F (stereo not drawn) [Compound #1, 1-(2,6-difluorobenzoyl)-3-[2-fluoro-4-(1,1,2,3,3,3-hexafluoropropoxy)phenyl]urea] | 86.5 | 76.6% and 77% | 100 | 100 | 93 | 81.9 | 79.6% and 80%
2 | O=C(NC(=O)c1c(F)cccc1F)Nc1ccc(OC(F)(F)C(F)F)cc1 [Compound B, 1-(2,6-difluorobenzoyl)-3-[4-(1,1,2,2-tetrafluoroethoxy)phenyl]urea] | – | – | 83 | 0 | – | – | –
3 | O=C(NC(=O)c1c(F)cccc1F)Nc1cccc(Oc2ncc(C(F)(F)F)cc2Cl)c1 [Compound C, 1-(2,6-difluorobenzoyl)-3-[3-(3-chloro-5-trifluoromethylpyridin-2-yloxy)phenyl]urea] | – | – | 96 | 77 | 11 | – | –
